According to patent US10239873B2, “7-azaindole or 4,7-diazaindole derivatives as IKKϵ epsilon and TBK1 inhibitor and pharmaceutical composition comprising same” (GREEN CROSS CORPORATION, priority 2015, dated 2019):

Biological target: T1, TBK1 (Homo sapiens, UniProt Q9UHD2)
T1 construct: purchased Promega (Invitrogen is also named in the same bracket) V4158; PR8031B; V3991 (not assigned to the two kinases)
T1 sequence (Q9UHD2 1-729): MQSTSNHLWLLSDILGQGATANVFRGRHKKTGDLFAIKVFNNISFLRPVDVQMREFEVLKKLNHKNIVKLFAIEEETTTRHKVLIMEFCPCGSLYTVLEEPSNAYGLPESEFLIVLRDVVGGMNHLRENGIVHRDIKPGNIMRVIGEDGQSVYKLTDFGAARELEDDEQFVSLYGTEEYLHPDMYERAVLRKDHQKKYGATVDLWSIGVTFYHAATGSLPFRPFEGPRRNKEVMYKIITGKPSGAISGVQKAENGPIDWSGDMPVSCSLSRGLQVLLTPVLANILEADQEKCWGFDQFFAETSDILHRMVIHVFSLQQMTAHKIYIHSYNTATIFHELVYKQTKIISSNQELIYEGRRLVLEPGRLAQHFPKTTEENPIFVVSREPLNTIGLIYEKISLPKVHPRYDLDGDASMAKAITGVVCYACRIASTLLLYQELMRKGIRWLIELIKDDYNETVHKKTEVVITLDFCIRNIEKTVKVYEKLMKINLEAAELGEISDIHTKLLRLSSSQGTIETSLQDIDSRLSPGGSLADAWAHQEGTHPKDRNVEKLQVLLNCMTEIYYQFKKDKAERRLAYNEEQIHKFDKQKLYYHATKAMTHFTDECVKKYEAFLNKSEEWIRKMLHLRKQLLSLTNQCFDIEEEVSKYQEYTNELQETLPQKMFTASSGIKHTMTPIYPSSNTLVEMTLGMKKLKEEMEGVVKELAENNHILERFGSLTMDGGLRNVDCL
Experiment: ADP-Glo Kinase Assay, inhibition activity on TBK1
Assay type: biochemical
Experimental: Inhibition activities on IKKϵ and TBK1 were evaluated using the compounds of Examples 1 to 250.
The inhibition activities on IKKϵ and TBK1 were measured by a luminometer, IKKϵ/TBK1 Kinase Enzyme System (Promega, Ca# V4158; Invitrogen, PR8031B, Promega, Ca# V3991) and ADP-Glo Kinase Assay using ADP-Glo™ Kinase Analysis Kit (Promega, Ca# V9101) and a kinase reaction buffer [40 mM Tris(pH 7.5), 20 mM MgCl2, 0.1 mg/mL BSA] in accordance with the manufacturer's protocol.

Row | Compound | IC50
1 | CCC(C)NC(=O)N1CC=C(c2c[nH]c3ncc(-c4ccc(OC)c(OC)c4)cc23)CC1 (centres unmarked) [Example 44, N-(sec-butyl)-4-(5-(3,4-dimethoxyphenyl)-1H-pyrrolo[2,3-b]pyridin-3-yl)-5,6-dihydropyridine-1(2H)-carboxamide] | 7.5 nM
2 | CC(C)(C)OC(=O)N1CC=C(c2c[nH]c3ncc(-c4ccc(CN5CCOCC5)s4)cc23)CC1 [Example 153, tert-Butyl 4-(5-(5-(morpholinomethyl)thiophen-2-yl)-1H-pyrrolo[2,3-b]pyridin-3-yl)-5,6-dihydropyridine-1(2H)-carboxylate] | 800 nM
3 | CCC1CN(C(=O)NC2CCCC2)CC=C1c1c[nH]c2ncc(-c3ccc(CN4CCOCC4)s3)cc12 (centres unmarked) [Example 128, N-cyclopentyl-5-ethyl-4-(5-(5-(morpholinomethyl)thiophen-2-yl)-1H-pyrrolo[2,3-b]pyridin-3-yl)-5,6-dihydropyridine-1(2H)-carboxamide] | 71 nM
4 | CN(C(=O)N1CC=C(c2c[nH]c3ncc(-c4cccc(S(C)(=O)=O)c4)cc23)CC1)C1CCCC1 [Example 217, N-cyclopentyl-N-methyl-4-(5-(3-(methylsulfonyl)phenyl)-1H-pyrrolo[2,3-b]pyridin-3-yl)-5,6-dihydropyridine-1(2H)-carboxamide] | 360 nM
5 | COc1ccc(-c2cnc3[nH]cc(C4CCCN(C(=O)OC(C)(C)C)C4)c3c2)cc1OC (centres unmarked) [Example 236, tert-butyl 3-(5-(3,4-dimethoxyphenyl)-1H-pyrrolo[2,3-b]pyridin-3-yl)piperidine-1-carboxylate] | > 10000 nM
6 | COc1ccc(-c2cnc3[nH]cc(C4=CCN(C(=O)OC5CCCC5)CC4)c3c2)cc1S(=O)(=O)N1CCOCC1 [Example 182, Cyclopentyl 4-(5-(4-methoxy-3-(morpholinosulfonyl)phenyl)-1H-pyrrolo[2,3-b]pyridin-3-yl)-5,6-dihydropyridine-1(2H)-carboxylate] | 180 nM
7 | CC1CN(C(=O)c2cccs2)CC=C1c1c[nH]c2ncc(-c3ccc(C(=O)N4CCOCC4)cc3)cc12 (centres unmarked) [Example 215, (4-(3-(3-methyl-1-(thiophene-2-carbonyl)-1,2,3,6-tetrahydropyridin-4-yl)-1H-pyrrolo[2,3-b]pyridin-5-yl)phenyl)(morpholino)methanone] | 12 nM
8 | COc1ccc(-c2cnc3[nH]cc(C4=CCN(C(=O)OC(C)(C)C)CC4)c3c2)cc1OC [Example 239, tert-butyl 4-(5-(3,4-dimethoxyphenyl)-1H-pyrrolo[2,3-b]pyridin-3-yl)-5,6-dihydropyridine-1(2H)-carboxylate] | 300 nM
9 | CC(C)(C)OC(=O)N1CC=C(c2c[nH]c3ncc(-c4ccc(N5CCCCC5)cc4)cc23)CC1 [Example 159, tert-Butyl 4-(5-(4-(piperidin-1-yl)phenyl)-1H-pyrrolo[2,3-b]pyridin-3-yl)-5,6-dihydropyridine-1(2H)-carboxylate] | 600 nM
10 | O=C(c1cccc(-c2cnc3[nH]cc(C4=CCN(C(=O)c5cccs5)CC4)c3c2)c1)N1CCOCC1 [Example 208, (4-(5-(3-(morpholine-4-carbonyl)phenyl)-1H-pyrrolo[2,3-b]pyridin-3-yl)-5,6-dihydropyridin-1(2H)-yl)(thiophen-2-yl)methanone] | 190 nM
11 | COc1ccc(-c2cnc3[nH]cc(C4=CCN(C(=O)OC5CCCC5)CC4)c3c2)cc1F [Example 171, Cyclopentyl 4-(5-(3-fluoro-4-methoxyphenyl)-1H-pyrrolo[2,3-b]pyridin-3-yl)-5,6-dihydropyridine-1(2H)-carboxylate] | 880 nM
12 | CC1CN(C(=O)c2cccs2)CC=C1c1c[nH]c2ncc(-c3ccc(S(C)(=O)=O)cc3)cc12 (centres unmarked) [Example 214, (5-methyl-4-(5-(4-(methylsulfonyl)phenyl)-1H-pyrrolo[2,3-b]pyridin-3-yl)-5,6-dihydropyridin-1(2H)-yl)(thiophen-2-yl)methanone] | 78 nM
13 | COc1ccc(-c2cnc3[nH]cc(C4=CCN(C(=O)NC5CCCC5)CC4)c3c2)cc1OC [Example 49, N-cyclopentyl-4-(5-(3,4-dimethoxyphenyl)-1H-pyrrolo[2,3-b]pyridin-3-yl)-5,6-dihydropyridine-1(2H)-carboxamide] | 32 nM
14 | CNS(=O)(=O)c1ccc(-c2cnc3[nH]c(C)c(C4=CCN(C(=O)NC5CCCC5)CC4)c3c2)cc1 [Example 222, N-cyclopentyl-4-(2-methyl-5-(4-(N-methylsulfamoyl)phenyl)-1H-pyrrolo[2,3-b]pyridin-3-yl)-5,6-dihydropyridine-1(2H)-carboxamide] | 6800 nM
15 | O=C(c1cccs1)N1CC=C(c2c[nH]c3ncc(-c4ccc(CN5CCOCC5)s4)nc23)CC1 [Example 233, (4-(2-(5-(morpholinomethyl)thiophen-2-yl)-5H-pyrrolo[2,3-b]pyrazin-7-yl)-5,6-dihydropyridin-1(2H)-yl)(thiophen-2-yl)methanone] | 40 nM
16 | O=C(OC1CCCC1)N1CC=C(c2c[nH]c3ncc(-c4ccc(S(=O)(=O)C5CC5)cc4)cc23)CC1 [Example 175, Cyclopentyl 4-(5-(4-(cyclopropylsulfonyl)phenyl)-1H-pyrrolo[2,3-b]pyridin-3-yl)-5,6-dihydropyridine-1(2H)-carboxylate] | 350 nM
17 | CS(=O)(=O)c1ccc(-c2cnc3[nH]cc(C4=C(F)CN(C(=O)NC5CCCC5)CC4)c3c2)cc1 [Example 132, N-cyclopentyl-3-fluoro-4-(5-(4-(methylsulfonyl)phenyl)-1H-pyrrolo[2,3-b]pyridin-3-yl)-5,6-dihydropyridine-1(2H)-carboxamide] | 250 nM
18 | O=C(NC1CCCC1)N1CC=C(c2c[nH]c3ncc(-c4csc(CN5CCOCC5)c4)cc23)CC1 [Example 73, N-cyclopentyl-4-(5-(5-(morpholinomethyl)thiophen-3-yl)-1H-pyrrolo[2,3-b]pyridin-3-yl)-5,6-dihydropyridine-1(2H)-carboxamide] | 620 nM
19 | CNS(=O)(=O)c1ccc(-c2cnc3[nH]cc(C4=CCN(C(=O)OC(C)(C)C)CC4)c3c2)cc1 [Example 165, tert-Butyl 4-(5-(4-(N-methylsulfamoyl)phenyl)-1H-pyrrolo[2,3-b]pyridin-3-yl)-5,6-dihydropyridine-1(2H)-carboxylate] | 28 nM
20 | CC(=O)Nc1cccc(-c2cnc3[nH]cc(C4=CCN(C(=O)OC(C)(C)C)CC4)c3c2)c1 [Example 240, tert-butyl 4-(5-(3-acetamidophenyl)-1H-pyrrolo[2,3-b]pyridin-3-yl)-5,6-dihydropyridine-1(2H)-carboxylate] | 200 nM
21 | CC1=C(c2c[nH]c3ncc(-c4ccc(S(C)(=O)=O)cc4)cc23)CCN(C(=O)NC2CCCC2)C1 [Example 130, N-cyclopentyl-3-methyl-4-(5-(4-(methylsulfonyl)phenyl)-1H-pyrrolo[2,3-b]pyridin-3-yl)-5,6-dihydropyridine-1(2H)-carboxamide] | 550 nM
22 | CC(C)OC(=O)N1CC=C(c2c[nH]c3ncc(-c4ccc(S(N)(=O)=O)cc4)cc23)CC1 [Example 150, Isopropyl 4-(5-(4-sulfamoylphenyl)-1H-pyrrolo[2,3-b]pyridin-3-yl)-5,6-dihydropyridine-1(2H)-carboxylate] | 36 nM
23 | CS(=O)(=O)c1ccc(-c2cnc3[nH]cc(C4=CCN(C(=O)c5cccs5)CC4)c3c2)cc1 [Example 194, (4-(5-(4-(methylsulfonyl)phenyl)-1H-pyrrolo[2,3-b]pyridin-3-yl)-5,6-dihydropyridin-1(2H)-yl)(thiophen-2-yl)methanone] | > 10000 nM
